Literature values as cited in patent publication US10703773B2, “Glycosyl hesperetin and process for producing the same and uses thereof” (Hayashibara Co. Ltd., priority 2014, dated 2020).

Settings: in water at ambient temperature

Water solubility: about 0.002 w/v %
SMILES: COc1ccc([C@@H]2CC(=O)c3c(O)cc(O[C@@H]4O[C@H](CO[C@@H]5O[C@@H](C)[C@H](O)[C@@H](O)[C@H]5O)[C@@H](O)[C@H](O)[C@H]4O)cc3O2)cc1O [hesperidin]
